# Laboratory results: BindingDB's records for doi:10.1021/jm010246u (University of Texas At Austin, 2001)
# Legend:
# [1] = molecular target: T1, Telomerase reverse transcriptase (Homo sapiens, UniProt O14746); assay: Apparent telomerase inhibition by G-quadruplex mechanism
# [2] = molecular target: T1, Telomerase reverse transcriptase; assay: Apparent telomerase inhibition by primer mechanism
# T1 sequence (O14746 whole entry): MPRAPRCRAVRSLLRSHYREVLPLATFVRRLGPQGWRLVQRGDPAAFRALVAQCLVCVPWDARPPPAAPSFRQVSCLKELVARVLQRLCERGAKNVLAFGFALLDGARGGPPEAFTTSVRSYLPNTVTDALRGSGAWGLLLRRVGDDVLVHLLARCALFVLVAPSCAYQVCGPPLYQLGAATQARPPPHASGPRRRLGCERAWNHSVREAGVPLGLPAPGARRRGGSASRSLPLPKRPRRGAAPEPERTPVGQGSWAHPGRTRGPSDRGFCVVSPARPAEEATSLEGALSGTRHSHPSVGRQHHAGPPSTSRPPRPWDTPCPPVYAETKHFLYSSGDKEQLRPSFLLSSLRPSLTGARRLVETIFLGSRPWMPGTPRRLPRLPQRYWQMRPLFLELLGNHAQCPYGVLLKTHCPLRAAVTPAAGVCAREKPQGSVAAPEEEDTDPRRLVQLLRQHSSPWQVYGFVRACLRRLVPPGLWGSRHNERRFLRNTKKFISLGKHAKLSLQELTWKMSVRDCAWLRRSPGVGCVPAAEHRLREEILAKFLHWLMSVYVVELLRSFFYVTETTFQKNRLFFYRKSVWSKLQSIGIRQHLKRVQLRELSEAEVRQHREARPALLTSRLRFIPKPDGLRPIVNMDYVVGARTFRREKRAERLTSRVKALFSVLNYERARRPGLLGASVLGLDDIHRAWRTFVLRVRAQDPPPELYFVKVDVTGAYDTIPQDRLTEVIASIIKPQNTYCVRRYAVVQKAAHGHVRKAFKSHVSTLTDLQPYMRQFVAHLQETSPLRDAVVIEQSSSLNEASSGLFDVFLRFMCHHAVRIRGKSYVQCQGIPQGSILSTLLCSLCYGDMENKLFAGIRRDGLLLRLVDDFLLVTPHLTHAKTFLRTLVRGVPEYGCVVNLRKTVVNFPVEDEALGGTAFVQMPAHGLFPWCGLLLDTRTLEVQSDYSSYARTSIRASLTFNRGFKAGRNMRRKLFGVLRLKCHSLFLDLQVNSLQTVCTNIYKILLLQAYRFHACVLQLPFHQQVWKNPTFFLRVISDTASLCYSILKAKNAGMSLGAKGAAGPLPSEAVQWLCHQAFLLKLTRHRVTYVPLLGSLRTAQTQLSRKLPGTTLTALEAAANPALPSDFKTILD
smiles,measurement,setting,value
CC[n+]1ccc(-c2c3nc(c(-c4cc[n+](CC)cc4)c4ccc([nH]4)c(-c4cc[n+](CC)cc4)c4ccc([nH]4)c(-c4cc[n+](CC)cc4)c4nc2C=C4)C=C3)cc1,IC50,[1],25 µM
C[n+]1ccc(-c2c3nc(c(-c4cc[n+](C)cc4)c4ccc([nH]4)c(-c4cc[n+](C)cc4)c4nc(c(-c5cc[n+](C)cc5)c5ccc2[nH]5)C=C4)C=C3)cc1,IC50,[1],8 µM
C[n+]1ccc(-c2c3nc(c(-c4cc[n+](C)cc4)c4ccc([nH]4)c(-c4cccc([N+](=O)[O-])c4)c4ccc([nH]4)c(-c4cc[n+](C)cc4)c4nc2C=C4)C=C3)cc1,IC50,[1],12 µM
C[n+]1ccc(-c2c3nc(c(-c4cccc([N+](=O)[O-])c4)c4nc(c(-c5cc[n+](C)cc5)c5ccc([nH]5)c(-c5cccc([N+](=O)[O-])c5)c5ccc2[nH]5)C=C4)C=C3)cc1,IC50,[1],25 µM
"C[n+]1cc(-c2ccco2)cc(-c2c3nc(c(-c4cc(-c5ccco5)c[n+](C)c4)c4ccc([nH]4)c(-c4cc(-c5ccco5)c[n+](C)c4)c4ccc([nH]4)c(-c4cc(-c5ccco5)c[n+](C)c4)c4nc2C=C4)C=C3)c1 [5,10,15,20-tetra[5-(2-furfuryl)-N-methyl-3-pyridyl]porphyrin chloride]",IC50,[2],8 µM
